The values below come from EP1285918A1, “C7 Ester substituted taxanes as antitumor agents” (Florida State University Research Foundation, Inc., priority 2001, dated 2003).

Series [1] relates to DU 145 Human Prostate Carcinoma Xenografts. To be noted: DU145, i.v. qd x 1 (mg/kg: Taxol 24, 1351 107.6, 1393 72.6, 1401 107.6, 1418 107.6, 1424 195.1). As to the method:
(§1) Other antitumor compounds were similarly formulated. […] The dosing volume was 0.3 ml per 20 g mouse.
Male NCr-nude mice (implanted subcutaneously with 1 mm^3 DU145 prostate carcinoma fragments in the flank) were sorted into treatment groups of five mice each. […] Dosing was initiated on Day 1. The antitumor compounds were given i.v. at an estimated maximum tolerated dose (MTD) appropriate for each agent on a qd x 1 schedule (single administration of compound). […] The vehicle was administered i.v. to control mice in Group 1 on the qd x 1 schedule. The study was terminated on Day 91. Treatment groups are detailed in Table 5.
The mean days of survival is the number of days after which a neoplasm reached a size of 1.5 g and the animal was euthanized. A complete response is obtained if the tumor is not palpable at the end of the study. A partial response is obtained if the tumor shrinks to a size smaller than its size on Day 1 of the study. […]

Series [2] concerns A375 Human Melanoma Xenografts. To be noted: A375, i.v. qd x 1 (mg/kg: Taxol 24, 1351 107.6, 1393 72.6, 1401 107.6, 1418 107.6, 1424 195.1, Taxotere 70). As to the method:
as §1
Female NCr-nude mice (implanted subcutaneously with 1 mm^3 A375 melanoma in the flank) were sorted into treatment groups of six mice each, except for the Taxotere group having seven mice each. […] Dosing was initiated on Day 1. The antitumor compounds were given i.v. at an estimated maximum tolerated dose (MTD) appropriate for each agent on a qd x 1 schedule (single administration of compound). […] Taxotere was given i.v. on a qd x 1 schedule at a dose of 70 mg/kg. The vehicle was administered i.v. to control mice in Group 1 on the qd x 1 schedule. Treatment groups are detailed in Table 9. The study was terminated on Day 60.
The results are summarized in Table 10 and include mean days of survival (MDS), number of toxic deaths, number of survivors, number of complete or partial responses, and number with stable disease. The mean days of survival is the number of days after which a tumor reached a size of 2.0 g and the animal was euthanized. A complete response is obtained if the tumor is not palpable at the end of the study. A partial response is obtained if the tumor shrinks to a size smaller than its size on Day 1 of the study. […]

The test system of series [3] is Panc-1 Human Pancreatic Carcinoma Xenografts. As to conditions: i.v. qd x 1 at estimated MTD; 6 mice/group; study end Day 63. As to the method: (§2) Other antitumor compounds were similarly formulated. […] The dosing volume was 0.3 mL per 20 g mouse.
Female NCr-nude mice (6-8 weeks of age, implanted subcutaneously with 1 mm^3 Panc-1 pancreatic carcinoma fragments in the flank) were sorted into treatment groups of six mice each. […] Dosing was initiated on Day 1. The antitumor compounds were given i.v. at an estimated maximum tolerated dose (MTD) appropriate for each agent on a qd x 1 schedule (single administration of compound). […] Taxotere was given i.v. at a dose of 70 mg/kg on a qd x 1 schedule. The vehicle was given i.v. to control mice in Group 1 in each test on Day 1 (qd x 1) schedule. Treatment groups are detailed in Table 12. The study was terminated on Day 63.
The mean days of survival is the number of days after which a neoplasm reached a size of 1.5 g and the animal was euthanized. A complete response is obtained if the tumor is not palpable at the end of the study. A partial response is obtained if the tumor shrinks to a size smaller than its size on Day 1 of the study.

Series [4] concerns VM46 Human Colon Carcinoma Xenografts. As to conditions: 6 mice/group. How it is done:
as §2
Female NCr-nude mice (6-8 weeks of age, implanted subcutaneously with 1 mm^3 VM46 colon carcinoma fragments in the flank) were sorted into treatment groups of six mice each. […] Dosing was initiated on Day 1. The antitumor compounds were given i.v. at an estimated maximum tolerated dose (MTD) appropriate for each agent on a qd x 1 schedule (single administration of compound). […] Taxotere was given i.v. at a dose of 70 mg/kg on a qd x 1 schedule. The vehicle was given i.v. to control mice in Group 1 in each test on Day 1 (qd x 1) schedule. Treatment groups are detailed in Table 13. The VM46 study ended on Day 64.
The results are summarized in table 14 and include mean days of survival (MDS), number of toxic deaths, number of survivors, number of complete or partial responses, and number with stable disease. The mean days of survival is the number of days after which a neoplasm reached a size of 1.5 g and the animal was euthanized. A complete response is obtained if the tumor is not palpable at the end of the study. A partial response is obtained if the tumor shrinks to a size smaller than its size on Day 1 of the study. […]

The next series relates to HCT116. As to the kind of experiment: In Vitro cytotoxicity measured by the cell colony formation assay. It counts as cell-based. As to conditions: Homo sapiens, HCT-116; 72 h drug incubation, colonies counted after 7 days; concentration producing 50% inhibition of colony formation; read-out: IN VITRO ID 50 (nm) HCT116. How it is done: In Vitro cytotoxicity measured by the cell colony formation assay
Four hundred cells (HCT116) were plated in 60 mm Petri dishes containing 2.7 mL of medium (modified McCoy's 5a medium containing 10% fetal bovine serum and 100 units/mL penicillin and […] streptomycin). The cells were incubated in a CO2 incubator at 37 °C for 5 h for attachment to the bottom of Petri dishes. The compounds identified in Example 2 were made up fresh in medium at ten times the final concentration, and then 0.3 mL of this stock solution was added to the 2.7 mL of medium in the dish. The cells were then incubated with drugs for 72 h at 37 ° C. At the end of incubation the drug-containing media were decanted, the dishes were rinsed with 4 mL of Hank's Balance Salt Solution (HBSS), 5 mL of fresh medium was added, and the dishes were returned to the incubator for colony formation. The cell colonies were counted using a colony counter after incubation for 7 days. Cell survival was calculated and the values of ID50 (the drug concentration producing 50% inhibition of colony formation) were determined for each tested compound.

Where [5] appears, read: tumor score 1 to 10, group mean.
Setting [6] is: 195.1 mg/kg i.v. qd x 1, study end Day 64.

Where two headings read alike, the source gives them in different places.

Turning to `CCC(=O)O[C@H]1C[C@H]2OC[C@@]2(OC(C)=O)[C@H]2[C@H](OC(=O)c3ccccc3)[C@]3(O)C[C@H](OC(=O)[C@H](O)[C@@H](NC(=O)OC(C)(C)C)c4ccsc4)C(C)=C([C@@H](O)C(=O)[C@]12C)C3(C)C` [Compound 1424], the “MDS (n)” value in series [1] (5 mice/group, 1.5 g cut-off, Day 91) is recorded as 76.0 ± 5.4 (4) days; in series [2] (2.0 g cut-off, Day 60) it was 30.7 ± 1.1 (2) days; in series [4] (195.1 mg/kg i.v. qd x 1, study end Day 64, days until tumor reached 1.5 g), 45.4 ± 8.1 (3) days. For the same compound, the “Complete Response” value in series [1] (5 mice/group, Day 91) is 0; in series [2] (Day 60), 0; in series [3], 0; in series [4] (setting [6]), 0. The “Partial Response” value is 1 in series [1] (5 mice/group, Day 91); 0 in series [2] (Day 60); 0 in series [3]; 0 in series [4] (setting [6]). For the same compound, the “Stable Disease” value is reported as 0 in series [1] (5 mice/group, Day 91); 0 in series [2] (Day 60); 0 in series [3]; 0 in series [4] (setting [6]). For the same compound, the Survivors in series [1] (5 mice/group, Day 91) was 1; in series [2] (Day 60), 0; in series [3], 0; in series [4] (setting [6]) it was 0. Also, the “Toxic Deaths” value is recorded as 0 in series [1] (5 mice/group, Day 91); 6 in series [3]; 3 in series [4] (setting [6]); “three” in series [4] (VM46, i.v. qd x 1 at estimated MTD). The “Mean Score” value in series [1] (setting [5]) is recorded as 3.6 ± 1.1; in series [2] (setting [5]), 1 ± 0.6; in series [3], 0 ± 0; in series [4] (setting [6]) it was 0.8 ± 0.4.

As to `CCCC(=O)OC1CC2OCC2(OC(C)=O)C2C(OC(=O)c3ccccc3)C3(O)CC(OC(=O)C(O)C(NC(=O)c4ccccc4)c4cccs4)C(C)=C(C(O)C(=O)C12C)C3(C)C` (stereo not drawn) [Compound 4175], in the series with HCT116, the IC50 is below 10 nM.

On to `CCCC(=O)OC1CC2OCC2(OC(C)=O)C2C(OC(=O)c3ccccc3)C3(O)CC(OC(=O)C(O)C(NC(=O)OCC(C)C)c4ccco4)C(C)=C(C(O)C(=O)C12C)C3(C)C` (stereo not drawn) [Compound 4616], for which the IC50 with HCT116 was below 1 nM.

As to `C/C=C/C(=O)N[C@@H](c1cccs1)[C@@H](O)C(=O)O[C@H]1C[C@@]2(O)[C@@H](OC(=O)c3ccccc3)[C@@H]3[C@]4(OC(C)=O)CO[C@@H]4C[C@H](OC(=O)CC)[C@@]3(C)C(=O)[C@H](O)C(=C1C)C2(C)C` [Compound 3560], the IC50 with HCT116 was below 1 nM.

With `C/C=C/C(=O)N[C@@H](c1ccoc1)[C@@H](O)C(=O)O[C@H]1C[C@@]2(O)[C@@H](OC(=O)c3ccccc3)[C@@H]3[C@]4(OC(C)=O)CO[C@@H]4C[C@H](OC(=O)CCC)[C@@]3(C)C(=O)[C@H](O)C(=C1C)C2(C)C` [Compound 4939], the IC50 with HCT116 was below 1 nM.

Consider `CC(=O)O[C@@]12CO[C@@H]1C[C@H](OC(=O)C(C)C)[C@@]1(C)C(=O)[C@H](O)C3=C(C)[C@@H](OC(=O)[C@H](O)[C@@H](NC(=O)C(C)C)c4ccco4)C[C@@](O)([C@@H](OC(=O)c4ccccc4)[C@H]21)C3(C)C` [Compound 6121], for which the IC50 with HCT116 is below 10 nM.

On to `CCOC(=O)NC(c1cccs1)C(O)C(=O)OC1CC2(O)C(OC(=O)c3ccccc3)C3C4(OC(C)=O)COC4CC(OC(=O)CC)C3(C)C(=O)C(O)C(=C1C)C2(C)C` (stereo not drawn) [Compound 4044], for which, in the series on HCT116, the IC50 was below 1 nM.

As to `CCC(=O)O[C@H]1C[C@H]2OC[C@@]2(OC(C)=O)[C@H]2[C@H](OC(=O)c3ccccc3)[C@]3(O)C[C@H](OC(=O)[C@H](O)[C@@H](NC(=O)OCC(C)C)c4cccs4)C(C)=C([C@@H](O)C(=O)[C@]12C)C3(C)C` [Compound 3232], the IC50 in the series with HCT116 is below 1 nM.

Turning to `CCC(=O)O[C@H]1C[C@H]2OC[C@@]2(OC(C)=O)[C@H]2[C@H](OC(=O)c3ccccc3)[C@]3(O)C[C@H](OC(=O)[C@H](O)[C@@H](NC(=O)OC(C)(C)C)c4cccnc4)C(C)=C([C@@H](O)C(=O)[C@]12C)C3(C)C` [Compound 1372], the IC50 with HCT116 worked out at 26.1 nM.

For the compound `CCC(=O)O[C@H]1C[C@H]2OC[C@@]2(OC(C)=O)[C@H]2[C@H](OC(=O)c3ccccc3)[C@]3(O)C[C@H](OC(=O)[C@H](O)[C@@H](NC(=O)OC(C)(C)C)C4CCC4)C(C)=C([C@@H](O)C(=O)[C@]12C)C3(C)C` [Compound 1447], the IC50 with HCT116 is below 10 nM.
